What was measured:
[1] = tested on: BB-rats; conditions: cited from earlier work
[2] = tested on: obese Zucker rats; conditions: cited from earlier work
[3] = biological target: T1, KATP-channels on pancreatic beta-cells (Homo sapiens, UniProt Q09428); conditions: by an activation of KATP-channels on pancreatic beta-cells; cited from earlier work
T1 construct: host or cells: pancreatic beta-cells
T1 sequence (Q09428 whole entry): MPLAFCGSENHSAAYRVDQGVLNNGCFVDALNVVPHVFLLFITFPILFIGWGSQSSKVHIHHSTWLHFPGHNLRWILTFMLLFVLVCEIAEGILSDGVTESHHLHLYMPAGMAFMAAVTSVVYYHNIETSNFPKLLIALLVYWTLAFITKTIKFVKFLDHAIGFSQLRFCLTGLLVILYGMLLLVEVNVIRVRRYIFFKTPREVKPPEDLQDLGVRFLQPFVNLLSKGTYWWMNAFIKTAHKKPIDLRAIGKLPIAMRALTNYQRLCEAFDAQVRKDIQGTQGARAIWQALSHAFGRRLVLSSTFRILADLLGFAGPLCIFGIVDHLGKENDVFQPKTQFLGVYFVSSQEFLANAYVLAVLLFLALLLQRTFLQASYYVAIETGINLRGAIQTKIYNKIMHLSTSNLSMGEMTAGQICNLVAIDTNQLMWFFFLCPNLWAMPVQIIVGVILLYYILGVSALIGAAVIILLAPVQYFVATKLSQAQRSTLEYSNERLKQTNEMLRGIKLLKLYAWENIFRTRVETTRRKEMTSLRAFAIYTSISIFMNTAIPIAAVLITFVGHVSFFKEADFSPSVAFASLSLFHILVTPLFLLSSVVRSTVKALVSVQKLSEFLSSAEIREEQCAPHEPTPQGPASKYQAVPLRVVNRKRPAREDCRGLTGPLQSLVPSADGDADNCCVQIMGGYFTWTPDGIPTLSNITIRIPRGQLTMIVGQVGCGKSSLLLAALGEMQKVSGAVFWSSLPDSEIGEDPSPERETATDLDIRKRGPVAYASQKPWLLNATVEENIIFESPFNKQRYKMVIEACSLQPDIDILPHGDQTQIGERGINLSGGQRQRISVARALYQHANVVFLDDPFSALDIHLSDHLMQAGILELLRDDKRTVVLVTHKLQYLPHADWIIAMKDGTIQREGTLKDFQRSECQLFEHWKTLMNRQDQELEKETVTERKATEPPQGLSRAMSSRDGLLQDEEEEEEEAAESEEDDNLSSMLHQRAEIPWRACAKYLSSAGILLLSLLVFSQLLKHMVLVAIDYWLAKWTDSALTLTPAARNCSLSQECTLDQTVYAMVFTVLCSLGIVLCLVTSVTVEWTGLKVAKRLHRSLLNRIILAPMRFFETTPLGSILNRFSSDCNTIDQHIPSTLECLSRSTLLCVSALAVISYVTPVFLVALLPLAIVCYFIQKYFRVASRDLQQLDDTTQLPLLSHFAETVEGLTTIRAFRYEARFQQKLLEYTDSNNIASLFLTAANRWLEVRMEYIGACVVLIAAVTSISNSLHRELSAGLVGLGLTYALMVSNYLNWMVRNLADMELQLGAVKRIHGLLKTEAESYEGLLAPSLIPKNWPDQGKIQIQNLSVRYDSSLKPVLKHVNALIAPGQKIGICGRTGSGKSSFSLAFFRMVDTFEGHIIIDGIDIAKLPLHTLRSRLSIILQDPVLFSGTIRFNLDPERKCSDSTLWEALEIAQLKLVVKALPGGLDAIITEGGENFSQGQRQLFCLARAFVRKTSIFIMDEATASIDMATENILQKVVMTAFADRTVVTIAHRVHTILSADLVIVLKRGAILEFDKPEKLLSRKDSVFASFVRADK
T1 sequence (Q14654 whole entry partner): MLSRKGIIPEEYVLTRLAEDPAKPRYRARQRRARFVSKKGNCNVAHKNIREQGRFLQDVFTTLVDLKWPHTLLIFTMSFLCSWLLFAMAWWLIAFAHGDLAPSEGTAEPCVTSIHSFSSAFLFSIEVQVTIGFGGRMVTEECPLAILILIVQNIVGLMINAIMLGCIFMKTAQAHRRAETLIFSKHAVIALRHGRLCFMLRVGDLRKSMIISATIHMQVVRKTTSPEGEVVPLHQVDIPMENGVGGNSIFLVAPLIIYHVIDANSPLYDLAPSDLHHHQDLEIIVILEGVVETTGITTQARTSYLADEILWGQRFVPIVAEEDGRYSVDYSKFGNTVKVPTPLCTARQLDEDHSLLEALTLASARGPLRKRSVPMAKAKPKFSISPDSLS

Structure (SMILES): CC1=Nc2ccc(Cl)cc2S(=O)(=O)N1 [diazoxide, 7-chloro-3-methyl-2H-1,2,4-benzothiadiazine 1,1-dioxide]
- onset of diabetes [1]: delay the onset of diabetes
- glucose tolerance [2]: improve glucose tolerance
- insulin receptor binding [2]: increase insulin receptor binding
- insulin secretion [2]: decrease insulin secretion
- weight gain [2]: decrease weight gain
- insulin release [3]: inhibit insulin release

Structure (SMILES): O=S1(=O)N=C(NC2(CO)CCCC2)Nc2cc(Cl)sc21 [Example 9, 6-Chloro-3-(1-hydroxymethylcyclopentyl)amino-4H-thieno[3,2-e]-1,2,4-thiadiazine 1,1-dioxide]
- melting point: 213 to 214 °C

Structure (SMILES): O=S1(=O)N=C(NC23CC4CC(CC(C4)C2)C3)Nc2cc(Cl)sc21 [Example 6, 3-(1-Adamantyl)amino-6-chloro-4H-thieno[3,2-e]-1,2,4-thiadiazine 1,1-dioxide]
- melting point: 339 to 340 °C

Structure (SMILES): CC(C)(NC1=NS(=O)(=O)c2sc(Cl)cc2N1)c1ccccc1 [Example 10, 6-Chloro-3-(1-methyl-1-phenylethyl)amino-4H-thieno[3,2-e]-1,2,4-thiadiazine 1,1-dioxide]
- melting point: ~ 360 °C (dec.)

Structure (SMILES): CC1(NC2=NS(=O)(=O)c3sc(Cl)cc3N2)CCC1 [Example 13, 6-Chloro-3-(1-methylcyclobutyl)amino-4H-thieno[3,2-e]-1,2,4-thiadiazine 1,1-dioxide]
- melting point: 294 to 296 °C

Structure (SMILES): CC(C)(CO)NC1=NS(=O)(=O)c2sc(Cl)cc2N1 [Example 4, 6-Chloro-3-(2-hydroxy-1,1-dimethylethylamino)-4H-thieno[3,2-e]-1,2,4-thiadiazine 1,1-dioxide]
- melting point: 224 to 226 °C
